Biological target: T1, indoleamine 2, 3-dioxygenase (IDO1) (Homo sapiens, UniProt P14902)
T1 construct: human peripheral blood mononuclear cells (PBMC) (PB003F; host or cells: human PBMC stimulated with IFN-gamma and LPS
Assay: PBMC IDO1 assay (kynurenine detection via mass spectrometry)
Format: cell-based
Conditions: human PBMC stimulated with IFN-γ and LPS, 2 days, kynurenine by mass spectrometry; read-out: IDO1 PBMC pIC50 (converted)
Procedure, shortened: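 Human PBMCs (50,000/well) stimulated with IFN-γ 100 ng/ml and LPS 50 ng/ml were exposed to 11-point 3-fold compound dilutions for 2 days at 37 °C. Supernatant kynurenine was quantified by RapidFire MS relative to an internal standard; parallel CellTiter-Glo ATP luminescence measured cytotoxicity, with four-parameter curve fitting.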

T1 sequence (P14902 whole entry): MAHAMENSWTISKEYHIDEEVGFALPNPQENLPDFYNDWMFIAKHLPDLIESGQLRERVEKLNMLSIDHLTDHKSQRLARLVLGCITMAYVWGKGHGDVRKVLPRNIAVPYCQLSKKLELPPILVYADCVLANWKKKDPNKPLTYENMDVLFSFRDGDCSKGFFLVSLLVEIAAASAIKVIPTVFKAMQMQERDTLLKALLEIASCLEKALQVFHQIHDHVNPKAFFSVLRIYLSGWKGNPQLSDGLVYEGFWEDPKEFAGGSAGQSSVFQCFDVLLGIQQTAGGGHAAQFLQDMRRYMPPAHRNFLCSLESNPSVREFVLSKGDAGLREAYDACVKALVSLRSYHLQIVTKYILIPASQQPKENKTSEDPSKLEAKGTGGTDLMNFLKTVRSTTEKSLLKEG

SMILES	IC50
CC(C)(C)OC(=O)N1CCC(CC(NC(=O)c2ccc(C3CC3)cc2)c2ccccc2)CC1 (centres unmarked) [Example 97, tert-butyl 4-(2-(4-cyclopropylbenzamido)-2-phenylethyl)piperidine-1-carboxylate]	25.1 nM
CC(C)(C)OC(=O)N1CCC(CC(NC(=O)c2ccc(C3CC3)s2)c2ccccc2)CC1 (centres unmarked) [Example 98, tert-butyl 4-(2-(5-cyclopropylthiophene-2-carboxamido)-2-phenylethyl)piperidine-1-carboxylate]	25.1 nM
CC(C)C(CC1CCN(C(=O)OC(C)(C)C)CC1)NC(=O)c1ccc(Cl)s1 (centres unmarked) [Example 99, tert-butyl 4-(2-(5-chlorothiophene-2-carboxamido)-3-methylbutyl)piperidine-1-carboxylate]	25.1 nM
O=C(NC(CC1CCN(C(=O)OC2CCCC2)CC1)c1ccccc1)c1ccc(Cl)cc1 (centres unmarked) [Example 100, cyclopentyl 4-(2-(4-chlorobenzamido)-2-phenylethyl)piperidine-1-carboxylate]	25.1 nM
CC(C)(C)OC(=O)N1CCC(CC(NC(=O)c2ccc(I)c(F)c2)c2ccccc2)CC1 (centres unmarked) [Example 101, tert-butyl 4-(2-(3-fluoro-4-iodobenzamido)-2-phenylethyl)piperidine-1-carboxylate]	25.1 nM
CCOC(=O)N1CCC(CC(NC(=O)c2ccc(Cl)cc2)c2ccccc2)CC1 (centres unmarked) [Example 102, ethyl 4-(2-(4-chlorobenzamido)-2-phenylethyl)piperidine-1-carboxylate]	25.1 nM
CC(C)OC(=O)N1CCC(CC(NC(=O)c2ccc(Cl)cc2)c2ccccc2)CC1 (centres unmarked) [Example 103, isopropyl 4-(2-(4-chlorobenzamido)-2-phenylethyl)piperidine-1-carboxylate]	25.1 nM
O=C(NC(CC1CCN(C(=O)Oc2ccccc2)CC1)c1ccccc1)c1ccc(Cl)cc1 (centres unmarked) [Example 104, phenyl 4-(2-(4-chlorobenzamido)-2-phenylethyl)piperidine-1-carboxylate]	25.1 nM
O=C(NC(CC1CCN(C(=O)OCC2CC2)CC1)c1ccccc1)c1ccc(Cl)cc1 (centres unmarked) [Example 105, cyclopropylmethyl 4-(2-(4-chlorobenzamido)-2-phenylethyl)piperidine-1-carboxylate]	25.1 nM
CCc1ccc(C(=O)NC(CC2CCN(C(=O)OC(C)(C)C)CC2)C2CCCCC2)s1 (centres unmarked) [Example 106, tert-butyl 4-(2-cyclohexyl-2-(5-ethylthiophene-2-carboxamido)ethyl)piperidine-1-carboxylate]	25.1 nM
CC(C)(C)OC(=O)N1CCC(CC(NC(=O)c2ccc(F)cc2)c2ccccc2)CC1 (centres unmarked) [Example 107, tert-butyl 4-(2-(4-fluorobenzamido)-2-phenylethyl)piperidine-1-carboxylate]	31.6 nM
CCOC(=O)N1CCC(CC(NC(=O)c2ccc(F)cc2)C2CC2)CC1 (centres unmarked) [Example 108, ethyl 4-(2-cyclopropyl-2-(4-fluorobenzamido)ethyl)piperidine-1-carboxylate]	31.6 nM
COc1ccc(C(=O)NC(CC2CCN(C(=O)OC(C)(C)C)CC2)c2ccccc2)cc1F (centres unmarked) [Example 109, tert-butyl 4-(2-(3-fluoro-4-methoxybenzamido)-2-phenylethyl)piperidine-1-carboxylate]	31.6 nM
CC(C)(C)OC(=O)N1CCC(CC(NC(=O)c2ccc(C(F)(F)F)cc2)c2ccccc2)CC1 (centres unmarked) [Example 110, tert-butyl 4-(2-phenyl-2-(4-(trifluoromethyl)benzamido)ethyl)piperidine-1-carboxylate]	31.6 nM
COc1ccc(C(CC2CCN(C(=O)OC(C)(C)C)CC2)NC(=O)c2ccc(SC)cc2)cn1 (centres unmarked) [Example 111, tert-butyl 4-(2-(6-methoxypyridin-3-yl)-2-(4-(methylthio)benzamido)ethyl)piperidine-1-carboxylate]	31.6 nM
CCN(CC)c1nnc(C(CC2CCN(C(=O)OC(C)(C)C)CC2)NC(=O)c2ccc(F)cc2)o1 (centres unmarked) [Example 112, tert-butyl 4-(2-(5-(diethylamino)-1,3,4-oxadiazol-2-yl)-2-(4-fluorobenzamido)ethyl)piperidine-1-carboxylate]	31.6 nM
COCCN(C)c1nnc(C(CC2CCN(C(=O)OC(C)(C)C)CC2)NC(=O)c2ccc(Cl)s2)o1 (centres unmarked) [Example 113, tert-butyl 4-(2-(5-chlorothiophene-2-carboxamido)-2-(5-((2-methoxyethyl)(methyl)amino)-1,3,4-oxadiazol-2-yl)ethyl)piperidine-1-carboxylate]	31.6 nM
C#CCOc1ccc(C(=O)NC(CC2CCN(C(=O)OC(C)(C)C)CC2)c2ccccc2)cc1F (centres unmarked) [Example 114, tert-butyl 4-(2-(3-fluoro-4-(prop-2-yn-1-yloxy)benzamido)-2-phenylethyl)piperidine-1-carboxylate]	31.6 nM
CC(C)(C)OC(=O)N1CCC(CC(NC(=O)c2ccc(Cl)s2)C2CCCC2)CC1 (centres unmarked) [Example 115, tert-butyl 4-(2-(5-chlorothiophene-2-carboxamido)-2-cyclopentylethyl)piperidine-1-carboxylate]	31.6 nM

SMILES	IC50
CC(C)(C)OC(=O)N1CCC(CC(NC(=O)c2ccc(F)s2)C2CCCC2)CC1 (centres unmarked) [Example 116, tert-butyl 4-(2-cyclopentyl-2-(5-fluorothiophene-2-carboxamido)ethyl)piperidine-1-carboxylate]	31.6 nM
O=C(NC(CC1CCN(C(=O)OCc2ccccc2)CC1)c1ccccc1)c1ccc(Cl)cc1 (centres unmarked) [Example 117, benzyl 4-(2-(4-chlorobenzamido)-2-phenylethyl)piperidine-1-carboxylate]	31.6 nM
CCc1ccc(C(=O)NC(CC2CCN(C(=O)OC(C)(C)C)CC2)c2ccccc2)cc1 (centres unmarked) [Example 118, tert-butyl 4-(2-(4-ethylbenzamido)-2-phenylethyl)piperidine-1-carboxylate]	31.6 nM
C=Cc1ccc(C(=O)NC(CC2CCN(C(=O)OC(C)(C)C)CC2)c2ccccc2)cc1 (centres unmarked) [Example 119, tert-butyl 4-(2-phenyl-2-(4-vinylbenzamido)ethyl)piperidine-1-carboxylate]	31.6 nM
CCOC(=O)N1CCC(CC(NC(=O)c2ccc(F)cc2)c2ccccc2)CC1 (centres unmarked) [Example 120, ethyl 4-(2-(4-fluorobenzamido)-2-phenylethyl)piperidine-1-carboxylate]	39.8 nM
O=C(NC(CC1CCN(C(=O)Oc2ccccc2)CC1)c1ccccc1)c1ccc(F)cc1 (centres unmarked) [Example 121, phenyl 4-(2-(4-fluorobenzamido)-2-phenylethyl)piperidine-1-carboxylate]	39.8 nM
CCN(CC)c1ccc(C(CC2CCN(C(=O)OC(C)(C)C)CC2)NC(=O)c2ccc(F)cc2)cn1 (centres unmarked) [Example 122, tert-butyl 4-(2-(6-(diethylamino)pyridin-3-yl)-2-(4-fluorobenzamido)ethyl)piperidine-1-carboxylate]	39.8 nM
COc1ccc(C(=O)N[C@@H](CC2CCN(C(=O)OC(C)(C)C)CC2)c2ccccc2)cn1 [Example 123, (S)-tert-butyl 4-(2-(6-methoxynicotinamido)-2-phenylethyl)piperidine-1-carboxylate]	39.8 nM
CC(C)c1ccc(C(=O)NC(CC2CCN(C(=O)OC(C)(C)C)CC2)c2ccccc2)s1 (centres unmarked) [Example 124, tert-butyl 4-(2-(5-isopropylthiophene-2-carboxamido)-2-phenylethyl)piperidine-1-carboxylate]	39.8 nM
CC(C)COC(=O)N1CCC(CC(NC(=O)c2ccc(Cl)cc2)c2ccccc2)CC1 (centres unmarked) [Example 125, isobutyl 4-(2-(4-chlorobenzamido)-2-phenylethyl)piperidine-1-carboxylate]	39.8 nM
CC(C)(C)OC(=O)N1CCC(CC(NC(=O)c2ccc(Br)cc2)C2CCCC2)CC1 (centres unmarked) [Example 126, tert-butyl 4-(2-(4-bromobenzamido)-2-cyclopentylethyl)piperidine-1-carboxylate]	39.8 nM
CCNc1nnc(C(CC2CCN(C(=O)OC(C)(C)C)CC2)NC(=O)c2ccc(Cl)s2)o1 (centres unmarked) [Example 127, tert-butyl 4-(2-(5-chlorothiophene-2-carboxamido)-2-(5-(ethylamino)-1,3,4-oxadiazol-2-yl)ethyl)piperidine-1-carboxylate]	39.8 nM
CC(C)(C)OC(=O)N1CCC(CC(NC(=O)c2csc(Cl)c2)c2ccccc2)CC1 (centres unmarked) [Example 128, tert-butyl 4-(2-(5-chlorothiophene-3-carboxamido)-2-phenylethyl)piperidine-1-carboxylate]	39.8 nM
CC(C)(C)OC(=O)N1CCC(C[C@@H](CCN2CCOCC2)NC(=O)c2ccc(Cl)s2)CC1 [Example 129, (S)-tert-butyl 4-(2-(5-chlorothiophene-2-carboxamido)-4-morpholinobutyl)piperidine-1-carboxylate]	39.8 nM
Cc1ccc(C(=O)NC(CC2CCN(C(=O)OC(C)(C)C)CC2)c2ccccc2)cc1 (centres unmarked) [Example 130, tert-butyl 4-(2-(4-methylbenzamido)-2-phenylethyl)piperidine-1-carboxylate]	50.1 nM
CC(C)(C)OC(=O)N1CCC(CC(NC(=O)c2cccs2)c2ccccc2)CC1 (centres unmarked) [Example 131, tert-butyl 4-(2-phenyl-2-(thiophene-2-carboxamido)ethyl)piperidine-1-carboxylate]	50.1 nM
CC(C)(C)OC(=O)N1CCC(CC(NC(=O)c2ccc(F)cc2)c2ccc(OC3CCCCC3)nc2)CC1 (centres unmarked) [Example 132, tert-butyl 4-(2-(6-(cyclohexyloxy)pyridin-3-yl)-2-(4-fluorobenzamido)ethyl)piperidine-1-carboxylate]	50.1 nM
CC(C)(C)OC(=O)N1CCC(CC(NC(=O)c2ccc(C3CC3)c(F)c2)c2ccccc2)CC1 (centres unmarked) [Example 133, tert-butyl 4-(2-(4-cyclopropyl-3-fluorobenzamido)-2-phenylethyl)piperidine-1-carboxylate]	50.1 nM
COC(=O)N1CCC(CC(NC(=O)c2ccc(Cl)cc2)c2ccccc2)CC1 (centres unmarked) [Example 134, methyl 4-(2-(4-chlorobenzamido)-2-phenylethyl)piperidine-1-carboxylate]	50.1 nM

Source: patent US20210078988A1, “MODULATORS OF INDOLEAMINE 2,3-DIOXYGENASE” (GLAXOSMITHKLINE INTELLECTUAL PROPERTY DEVELOPMENT LIMITED, priority 2017, published 2021)
